Our source for the T/C values is PubChem BioAssay AID328 (DTP/NCI, 2004).

Values joined by “and” are separate entries in the source; they are usually repeats but may differ in a detail not shown here. Equal values may be shown once. Toxic doses and inconclusive results are not listed.

This assay concerns BDF1 mice, P388 leukemia ip, median survival T/C. As to the kind of experiment: NCI In Vivo Anticancer Drug Screen. Data for tumor model P388 Leukemia (intraperitoneal) in B6D2F1 (BDF1) mice. The note with it: endpoint: median survival time, higher = longer survival. In short, it runs like this:
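Steps: implant the tumour, treat one group with compound and another with vehicle, record survival, then divide treated by control.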

Where [1] appears, read: dose: 100.0 mg/kg/injection, schedule: Q01DX009 (ip), vehicle: saline with Tween-80.
[2] abbreviates: dose: 200.0 mg/kg/injection, schedule: Q01DX009 (ip), vehicle: saline with Tween-80.
Setting [3] is: dose: 25.0 mg/kg/injection, schedule: Q01DX009 (ip), vehicle: Klucel (hydroxypropylcellulose) (HPC).
The mark [4] stands for this setting: dose: 50.0 mg/kg/injection, schedule: Q01DX009 (ip), vehicle: Klucel (hydroxypropylcellulose) (HPC).
Where [5] appears, read: dose: 100.0 mg/kg/injection, schedule: Q01DX009 (ip), vehicle: Klucel (hydroxypropylcellulose) (HPC).
[6] abbreviates: dose: 100.0 mg/kg/injection, schedule: Q04DX003 (ip), vehicle: saline with Tween-80.
Setting [7] is: dose: 200.0 mg/kg/injection, schedule: Q04DX003 (ip), vehicle: saline with Tween-80.
[8] abbreviates: dose: 400.0 mg/kg/injection, schedule: Q04DX003 (ip), vehicle: saline with Tween-80.
Where [9] appears, read: dose: 100.0 mg/kg/injection, schedule: Q04DX003 (ip), vehicle: Klucel (hydroxypropylcellulose) (HPC).
Where [10] appears, read: dose: 200.0 mg/kg/injection, schedule: Q01DX009 (ip), vehicle: Klucel (hydroxypropylcellulose) (HPC).
Where [11] appears, read: dose: 200.0 mg/kg/injection, schedule: Q04DX003 (ip), vehicle: Klucel (hydroxypropylcellulose) (HPC).
The mark [12] stands for this setting: dose: 400.0 mg/kg/injection, schedule: Q04DX003 (ip), vehicle: Klucel (hydroxypropylcellulose) (HPC).
Where [13] appears, read: dose: 12.5 mg/kg/injection, schedule: Q01DX009 (ip), vehicle: saline.
Setting [14] is: dose: 25.0 mg/kg/injection, schedule: Q01DX009 (ip), vehicle: saline.
Setting [15] is: dose: 25.0 mg/kg/injection, schedule: Q04DX003 (ip), vehicle: saline.
Setting [16] is: dose: 50.0 mg/kg/injection, schedule: Q04DX003 (ip), vehicle: saline.
The mark [17] stands for this setting: dose: 100.0 mg/kg/injection, schedule: Q04DX003 (ip), vehicle: saline.
The mark [18] stands for this setting: dose: 100.0 mg/kg/injection, schedule: Q04DX003 (ip), vehicle: saline sonified.
The mark [19] stands for this setting: dose: 200.0 mg/kg/injection, schedule: Q04DX003 (ip), vehicle: saline sonified.

With `O=C(NCc1ccco1)C(=O)NCc1ccco1`, the T/C is, setting by setting: (dose: 50.0 mg/kg/injection, schedule: Q01DX009 (ip), vehicle: saline with Tween-80) 87 % of control; under setting [1], 90 % of control; under setting [2], 98 % of control.
`C=CCOP(=O)(OCC=C)OCC=C`: the T/C under setting [3] was 100 % of control, the T/C under setting [4] is 104 % of control and the T/C under setting [5] is 104 % of control.
For the compound `O=C(c1ccc(Cl)cc1)C1Cc2ccccc2C1=O` (centres undefined), the T/C was 91 % of control under setting [1]; 91 % of control under setting [6]; 91 % of control under setting [2]; 121 % of control under setting [7]; 100 % of control (dose: 400.0 mg/kg/injection, schedule: Q01DX009 (ip), vehicle: saline with Tween-80); 100 % of control under setting [8].
On to `COC(=O)C/C(=C\c1ccc(OC)c(OC)c1)C(=O)OC`, for which the T/C is, setting by setting: under setting [5], 109 % of control; under setting [9], 104 % of control; under setting [10], 113 % of control; under setting [11], 100 % of control; (dose: 400.0 mg/kg/injection, schedule: Q01DX009 (ip), vehicle: Klucel (hydroxypropylcellulose) (HPC)) 100 % of control; under setting [12], 100 % of control.
As to `CC[N+](CC)(CC)CCCNC1=CC(=O)C(NCCC[N+](CC)(CC)CC)=CC1=O`, the T/C is, setting by setting: (dose: 0.39 mg/kg/injection, schedule: Q04DX003 (ip), vehicle: saline) 99 % of control; (dose: 0.78 mg/kg/injection, schedule: Q04DX003 (ip), vehicle: saline) 99 % of control.
As for `N[C@H](Cc1c[nH]c2ccccc12)C(=O)O`, the T/C is 92 % of control (dose: 100.0 mg/kg/injection, schedule: Q01DX010 (ip), vehicle: saline); 96 % of control (dose: 200.0 mg/kg/injection, schedule: Q01DX010 (ip), vehicle: saline); 96 % of control (dose: 400.0 mg/kg/injection, schedule: Q01DX010 (ip), vehicle: saline); 110 % of control (dose: 800.0 mg/kg/injection, schedule: Q01DX010 (ip), vehicle: saline).
In the case of `NNC(=O)c1c[nH]c2ccccc2c1=O`, the T/C by setting is: (dose: 12.5 mg/kg/injection, schedule: Q01DX009 (ip), vehicle: Klucel (hydroxypropylcellulose) (HPC)) 104 % of control; under setting [3], 104 % of control; under setting [4], 91 % of control; (dose: 75.0 mg/kg/injection, schedule: Q01DX009 (ip), vehicle: Klucel (hydroxypropylcellulose) (HPC)) 108 % of control; (dose: 115.0 mg/kg/injection, schedule: Q01DX009 (ip), vehicle: Klucel (hydroxypropylcellulose) (HPC)) 91 % of control; (dose: 170.0 mg/kg/injection, schedule: Q01DX009 (ip), vehicle: Klucel (hydroxypropylcellulose) (HPC)) 95 % of control.
With `CCOC(=O)C1c2cccc(O)c2C=CN1C(C)=O` (centres undefined), the T/C runs as follows: under setting [6], 91 % of control; under setting [7], 91 % of control; under setting [8], 95 % of control.
Take `COc1ccc(C(=O)C(Br)C(Br)C(=O)O)cc1` (centres undefined): the T/C is 100 % of control under setting [13]; 95 % of control and 104 % of control under setting [14]; 100 % of control under setting [15]; 95 % of control and 112 % of control (dose: 50.0 mg/kg/injection, schedule: Q01DX009 (ip), vehicle: saline); 109 % of control under setting [16]; 105 % of control (dose: 100.0 mg/kg/injection, schedule: Q01DX009 (ip), vehicle: saline). Moreover, under setting [17], the T/C was 86 % of control.
With `Oc1c(Cl)cc(Cl)cc1C1N2CCCCC2C2c3cccn3-c3ccccc3N21` (centres undefined), the T/C is 93 % of control under setting [4] and 90 % of control under setting [5].
For `Cc1ccc(N2CCN(CCCN3CCN(c4ccc(Cl)cc4)CC3)CC2)cc1`, the T/C by setting is: (dose: 50.0 mg/kg/injection, schedule: Q04DX003 (ip), vehicle: saline sonified) 100 % of control; under setting [18], 95 % of control; under setting [19], 95 % of control.
Regarding `COc1ccc2nc3cc(Cl)ccc3c(NCCCNCCCCNCCCNc3c4ccc(Cl)cc4nc4ccc(OC)cc34)c2c1`, the T/C is, setting by setting: (dose: 1.25 mg/kg/injection, schedule: Q01DX009 (ip), vehicle: saline with Tween-80) 116 % of control; (dose: 2.5 mg/kg/injection, schedule: Q01DX009 (ip), vehicle: saline with Tween-80) 107 % of control.
For the compound `O=C(COc1ccc(Cl)cc1)C1CSc2ccc(Br)cc21` (centres undefined), the T/C is, setting by setting: under setting [18], 90 % of control; under setting [19], 95 % of control; (dose: 400.0 mg/kg/injection, schedule: Q04DX003 (ip), vehicle: saline sonified) 95 % of control.
Consider `N#CC1(Nc2ccccc2)CCCCC1`, for which the T/C (dose: 25.0 mg/kg/injection, schedule: Q01DX009 (ip), vehicle: saline with Tween-80) is 115 % of control; the T/C (dose: 50.0 mg/kg/injection, schedule: Q04DX003 (ip), vehicle: saline with Tween-80) is 109 % of control; the T/C under setting [6] was 109 % of control.
For the compound `S=C(Nc1ccc(Cl)c(Cl)c1)N1c2ccccc2-n2cccc2C1c1cccnc1` (centres undefined), the T/C by setting is: under setting [4], 124 % of control; under setting [5], 121 % of control; under setting [10], 117 % of control.
Take `O=S(=O)(O)CCO`: the T/C by setting is: (dose: 200.0 mg/kg/injection, schedule: Q01DX009 (ip), vehicle: saline) 92 % of control; (dose: 400.0 mg/kg/injection, schedule: Q01DX009 (ip), vehicle: saline) 100 % of control.
As for `OCC1OC(n2ccc3c2ncn2nnnc32)C(O)C1O` (centres undefined), the T/C (dose: 6.25 mg/kg/injection, schedule: Q01DX009 (ip), vehicle: saline) was 97 % of control; the T/C under setting [13] is 94 % of control; the T/C (dose: 12.5 mg/kg/injection, schedule: Q04DX003 (ip), vehicle: saline) is 96 % of control; the T/C under setting [14] was 94 % of control; the T/C under setting [15] was 104 % of control; the T/C under setting [16] was 111 % of control.
In the case of `OCC1OC(n2cnc3c(SCc4ccccc4)nc(NO)nc32)C(O)C1O` (centres undefined), for the setting “dose: 200.0 mg/kg/injection, schedule: Q01DX009 (ip), vehicle: acetone”, the T/C is 100 % of control.
In the case of `O=c1oc(-c2ccccc2)nc2c(Cl)ccc(Cl)c12`, the T/C was 109 % of control under setting [17]; 104 % of control (dose: 200.0 mg/kg/injection, schedule: Q04DX003 (ip), vehicle: saline); 104 % of control (dose: 400.0 mg/kg/injection, schedule: Q04DX003 (ip), vehicle: saline).
For `COc1cc(N(CCCl)CCCl)c(OC)cc1/C=N/NC(=O)CC(N)C(=O)O` (centres undefined), the T/C by setting is: (dose: 16.0 mg/kg/injection, schedule: Q01DX009 (ip), vehicle: Klucel (hydroxypropylcellulose) (HPC)) 153 % of control; under setting [3], 150 % of control and 179 % of control; (dose: 35.0 mg/kg/injection, schedule: Q01DX009 (ip), vehicle: Klucel (hydroxypropylcellulose) (HPC)) 153 % of control; under setting [4], 177 % of control; (dose: 65.0 mg/kg/injection, schedule: Q04DX003 (ip), vehicle: Klucel (hydroxypropylcellulose) (HPC)) 181 % of control; under setting [9], 235 % of control. Also, the T/C is, setting by setting: (dose: 132.0 mg/kg/injection, schedule: Q04DX003 (ip), vehicle: Klucel (hydroxypropylcellulose) (HPC)) 240 % of control and 247 % of control; under setting [11], 265 % of control and 272 % of control and 180 % of control; under setting [12], 100 % of control.
`CCCCCC(O)CCCCC`: the T/C reads like this: under setting [1], 104 % of control; under setting [2], 95 % of control.
